Source: ChEMBL document CHEMBL1201862, “PubChem BioAssay data set” (2004)
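The compound was tested at five concentrations on cells cultured in 96-well plates, with a 48-hour exposure period. GI50: concentration for 50% inhibition of growth.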 Activity calls are given as the source filed them. Rule as the data show it: active = GI50 up to about 1.1 µM and inactive = higher.

Experiments:
Experiment in all cases: growth of human tumour cells (NCI), 48 h
[1] = tested on: Malme-3M
[2] = tested on: SF-295
[3] = tested on: SK-MEL-2
[4] = tested on: SK-OV-3
[5] = tested on: SK-MEL-5
[6] = tested on: A498
[7] = tested on: U-251
[8] = tested on: TK-10
[9] = tested on: SF-539
[10] = tested on: 786-0
[11] = tested on: UACC-257
[12] = tested on: SNB-78
[13] = tested on: SNB-75
[14] = tested on: NCI-H522
[15] = tested on: LOX IMVI
[16] = tested on: HL-60
[17] = tested on: OVCAR-4
[18] = tested on: M19-MEL
[19] = tested on: UO-31
[20] = tested on: M14
[21] = tested on: HOP-92
[22] = tested on: NCI-H226
[23] = tested on: SNB-19
[24] = tested on: HOP-18
[25] = tested on: HCT-116
[26] = tested on: RXF 393
[27] = tested on: HCC 2998
[28] = tested on: SF-268
[29] = tested on: CAKI-1
[30] = tested on: HOP-62
[31] = tested on: OVCAR-8
[32] = tested on: DMS-273
[33] = tested on: SW-620
[34] = tested on: DLD-1
[35] = tested on: COLO 205
[36] = tested on: SN12C
[37] = tested on: EKVX
[38] = tested on: NCI-H460
[39] = tested on: HT-29
[40] = tested on: NCI-H23
[41] = tested on: K562
[42] = tested on: ACHN
[43] = tested on: SR
[44] = tested on: IGROV-1
[45] = tested on: LXFL 529
[46] = tested on: UACC-62
[47] = tested on: OVCAR-5
[48] = tested on: CCRF-CEM
[49] = tested on: OVCAR-3
[50] = tested on: SK-MEL-28
[51] = tested on: RPMI-8226
[52] = tested on: MOLT-4
[53] = tested on: DMS-114
[54] = tested on: KM-20L2
[55] = tested on: KM12
[56] = tested on: A549
[57] = tested on: HCT-15
[58] = tested on: MDA-MB-231
[59] = tested on: MDA-N
[60] = tested on: PC-3
[61] = tested on: NCI/ADR-RES
[62] = tested on: T47D
[63] = tested on: Hs-578T
[64] = tested on: BT-549
[65] = tested on: MDA-MB-435
[66] = tested on: MCF7
[67] = tested on: XF498
[68] = tested on: DU-145

Measured: GI50

CC(=O)OC1CC2C(C)(C)C(=O)C=C[C@]2(C)C2CCC3(C)C(c4ccoc4)[C@@H](O)[C@H]4O[C@]43[C@]12C (stereo partly specified)
inactive: [1] 24.2 µM | [2] 23.3 µM | [3] 18.9 µM | [4] 20.7 µM | [5] 17.5 µM | [6] 29.6 µM | [7] 14.6 µM | [8] 34.2 µM | [9] 17.9 µM | [10] 17.5 µM | [11] 21.4 µM | [12] 25.6 µM | [13] 24 µM | [14] 14.6 µM | [15] 16.9 µM | [16] 24.9 µM | [17] 19.7 µM | [18] 18.7 µM | [19] 17.8 µM | [20] 19.9 µM | [21] 20.3 µM | [22] 18.4 µM | [23] 24 µM | [24] 21.6 µM | [25] 24.9 µM | [26] 19.1 µM | [27] 16.1 µM | [28] 24.5 µM | [29] 22 µM | [30] 22.7 µM | [31] 18.3 µM | [32] 22.1 µM | [33] 18.9 µM | [34] 20.4 µM | [35] 19.8 µM | [36] 18.6 µM | [37] 30.2 µM | [38] 19.3 µM | [39] 21.7 µM | [40] 18.1 µM | [41] 16.4 µM | [42] 21.8 µM | [43] 16.1 µM | [44] 24 µM | [45] 18.5 µM | [46] 16.2 µM | [47] 25.9 µM | [48] 21.6 µM | [49] 17.7 µM | [50] 23.7 µM | [51] 18.4 µM | [52] 21.7 µM | [53] 20.1 µM | [54] 18.5 µM | [55] 19.2 µM | [56] 36 µM
17.4 µM: [57]

COc1cc([C@H]2c3[nH]c4ccccc4c3C[C@H]3COC(=O)N32)cc(OC)c1O
active: [2] 0.0189 µM | [5] 0.0193 µM | [6] 0.0509 µM | [7] 0.0326 µM | [8] 0.807 µM | [9] 0.0396 µM | [10] 0.145 µM | [58] 0.0408 µM | [59] < 0.01 µM | [60] 0.0378 µM | [61] 0.0667 µM | [13] 0.0324 µM | [14] 0.015 µM | [15] < 0.01 µM | [63] 0.0335 µM | [16] 0.0176 µM | [19] 0.246 µM | [20] < 0.0386 µM | [65] < 0.01 µM | [22] 0.422 µM | [66] < 0.01 µM | [25] 0.0344 µM | [26] 0.0405 µM | [67] 0.0671 µM | [27] 0.143 µM | [28] 0.0221 µM | [29] 0.0395 µM | [30] 0.0462 µM | [31] 0.131 µM | [32] 0.0163 µM | [33] 0.0268 µM | [34] 0.132 µM | [35] 0.166 µM | [37] 0.8 µM | [38] 0.0312 µM | [39] 0.0228 µM | [40] 0.0748 µM | [41] 0.0153 µM | [42] 0.163 µM | [43] 0.0132 µM | [44] 0.0502 µM | [46] 0.0209 µM | [48] 0.0209 µM | [49] < 0.01 µM | [51] 0.0404 µM | [52] 0.0488 µM | [54] 0.04 µM | [55] 0.0202 µM | [56] 0.0792 µM
0.0256 µM: [57]
inactive: [1] 3.95 µM | [11] > 100 µM | [12] 2.3 µM | [62] 42.4 µM | [17] 39.3 µM | [64] 29.2 µM | [21] 2.27 µM | [23] 4.9 µM | [24] 64.3 µM | [36] 2.43 µM | [47] 13.3 µM | [50] 1.66 µM

CCN(CC)CC[n+]1ccc2c(C)c3[nH]c4ccc(O)cc4c3c(C)c2c1
active: [13] 1 µM | [63] 0.552 µM | [22] 1.05 µM | [28] 1.12 µM | [36] 0.414 µM | [38] 0.434 µM | [43] 0.0278 µM | [52] 0.0473 µM | [53] 0.767 µM
inactive: [1] 5.83 µM | [2] 3.01 µM | [3] 16 µM | [4] 10.4 µM | [5] 3.09 µM | [6] 16.2 µM | [7] 1.33 µM | [8] 28.3 µM | [9] 3.89 µM | [10] 3.05 µM | [58] 10.6 µM | [59] 8.89 µM | [11] 19.6 µM | [12] 3.5 µM | [60] 7.46 µM | [61] 14.6 µM | [62] 2.67 µM | [14] 1.96 µM | [15] 10.8 µM | [16] 2.88 µM | [17] 3.85 µM | [18] 1.21 µM | [64] 12.7 µM | [19] 28 µM | [20] 10.7 µM | [65] 9.42 µM | [21] 3.85 µM | [23] 1.21 µM | [66] 2 µM | [24] 4.23 µM | [25] 6.47 µM | [26] 11.1 µM | [27] 6.15 µM | [29] 13.8 µM | [30] 2.03 µM | [68] 2.4 µM | [31] 3.72 µM | [32] 2.92 µM | [33] 5.57 µM | [34] 11.6 µM | [35] 3.18 µM | [37] 10.8 µM | [39] 8.45 µM | [40] 3.82 µM | [41] 4.06 µM | [42] 2.64 µM | [44] 6.44 µM | [45] 2.5 µM | [46] 6.56 µM | [47] 15.9 µM | [48] 1.43 µM | [49] 14.9 µM | [50] 7.13 µM | [51] 7.31 µM | [54] 8.47 µM | [55] 4.31 µM | [56] 1.35 µM
18.7 µM: [57]
